# Measured values taken from paper PMC6747015, “Structure–function study of a novel inhibitor of the casein kinase 1 family in Arabidopsis thaliana” (Plant Direct, 2019).
# pIC50: −log10 of the molar value.
# Assays:
# Recombinant CKL4 kinase = biological target: T1, Recombinant CKL4 kinase (Arabidopsis thaliana, UniProt Q8LPI7); experiment: In vitro phosphorylation assay of CKL4 (32P phosphorylation of casein); type: biochemical; settings: recombinant CKL4, casein, 32P‐ATP, 37°C for 2 hr; read-out: IC50 for in vitro CKL4 kinase activity
# T1 sequence (Q8LPI7 1-414): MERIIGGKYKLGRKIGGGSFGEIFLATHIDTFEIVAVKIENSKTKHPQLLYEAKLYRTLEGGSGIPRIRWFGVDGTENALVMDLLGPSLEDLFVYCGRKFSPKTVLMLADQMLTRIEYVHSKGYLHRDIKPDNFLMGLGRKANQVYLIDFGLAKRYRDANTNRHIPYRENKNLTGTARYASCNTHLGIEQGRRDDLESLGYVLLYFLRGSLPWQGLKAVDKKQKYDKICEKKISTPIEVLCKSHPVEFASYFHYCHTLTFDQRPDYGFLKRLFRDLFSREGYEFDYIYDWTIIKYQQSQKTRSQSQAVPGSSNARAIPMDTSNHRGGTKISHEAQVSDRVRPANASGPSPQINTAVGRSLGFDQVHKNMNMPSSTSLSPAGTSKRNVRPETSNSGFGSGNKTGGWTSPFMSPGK
# Experimental: In vitro phosphorylation assays using recombinant CKL4 were performed as described previously (Uehara et al., 2019), with synthetic small molecules. IC261 and PF‐670462 were purchased (Sigma‐Aldrich catalog numbers I0658 and SML0795, respectively). PHA767491 was synthesized as previously described (Uehara et al., 2019). All chemical compounds were dissolved in dimethyl sulfoxide (DMSO) as 10 mM stock solutions. Stock solutions were diluted with DMSO to the working concentration and added to assays in kinase reaction buffer (Uehara et al., 2019).
# The activities of three known CK1 inhibitors were measured in vitro by a previously reported method (Uehara et al., 2019). Recombinant CKL4 kinase, casein, ^32P‐ATP, and different concentrations of the inhibitors were combined in a reaction buffer and kept at 37°C for 2 hr. Resulting samples were separated on a polyacrylamide gel by electrophoresis, and ^32P phosphorylation of casein was measured as an indicator of CKL4 kinase activity. IC50 (half‐maximal inhibitory concentration) was determined by calculating the results from at least two independent experiments. […] The stronger in vitro CK1 inhibitory activity shown by PF‐670462 relative to PHA767491 was consistent with previous reports (Uehara et al., 2019).
# CKL3 (AT4G28880) = biological target: T2, CKL3 (AT4G28880) (Arabidopsis thaliana, UniProt Q93Z18); experiment: AMI‐329 bead binding with AMI‐331 competitor, CKL3
# T2 construct: from tissue; host or cells: Arabidopsis seedlings, two weeks old
# Experimental: (§1) Screening for proteins bound to AMI‐329 beads was done by a method similar to what has previously been described (Uehara et al., 2019). Briefly, two‐week‐old seedlings grown under LD conditions were harvested at time points ZT2, ZT6, ZT9, and ZT17, and stored at −80°C. Proteins from the frozen plant samples were incubated with 0, 5, or 50 µM of AMI‐331 at 4°C for 30 min with rotary mixing. Two technical replicates were used for each experiment. PBS‐washed AMI‐329 beads were added to the protein samples and gently rotated at 4°C for 1 hr. AMI‐329 bead resins were washed with bead buffer (Uehara et al., 2019) six times. The washed resins were suspended in SDS sample buffer and boiled for 8 min. Protein samples were in‐gel‐digested as previously described (Uehara et al., 2019). Peptides were analyzed with a Q Exactive hybrid quadrupole‐orbitrap mass spectrometer (Thermo Fisher Scientific), as described previously (Uehara et al., 2019). […]
# (§2) However, another possible mechanism for the strong AMI‐331 biological activity in vivo is that it targets proteins other than the CK1 family for period lengthening. […] It is noteworthy that kinase AT4G08800 is very similar to the CKL family, but the ATP‐binding pocket of mammalian CK1 as determined by its crystal structure (Shinohara et al., 2017) was absent from AT4G08800, as shown in an Araport 11 model (https://www.araport.org). […]
# CKL7 (AT5G44100) = biological target: T3, CKL7 (AT5G44100) (Arabidopsis thaliana, UniProt Q9FFH8); experiment: AMI‐329 bead binding with AMI‐331 competitor, CKL7
# T3 construct: from tissue; host or cells: Arabidopsis seedlings, two weeks old
# Experimental: as §1, §2
# T3 sequence (Q9FFH8 whole entry): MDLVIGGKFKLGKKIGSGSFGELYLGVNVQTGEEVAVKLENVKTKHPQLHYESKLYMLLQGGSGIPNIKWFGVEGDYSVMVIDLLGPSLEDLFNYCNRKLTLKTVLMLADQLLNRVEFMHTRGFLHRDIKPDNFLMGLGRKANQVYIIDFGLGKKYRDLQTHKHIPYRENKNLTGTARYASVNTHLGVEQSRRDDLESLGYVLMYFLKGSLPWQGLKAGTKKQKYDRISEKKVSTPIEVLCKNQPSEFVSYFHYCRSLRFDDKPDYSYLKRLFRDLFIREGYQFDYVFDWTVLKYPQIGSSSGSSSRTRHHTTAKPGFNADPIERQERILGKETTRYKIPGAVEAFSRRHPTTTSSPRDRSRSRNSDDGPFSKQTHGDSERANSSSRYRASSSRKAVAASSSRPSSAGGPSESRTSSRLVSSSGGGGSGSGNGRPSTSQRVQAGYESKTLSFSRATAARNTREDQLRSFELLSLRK
# T2 sequence (Q93Z18 whole entry): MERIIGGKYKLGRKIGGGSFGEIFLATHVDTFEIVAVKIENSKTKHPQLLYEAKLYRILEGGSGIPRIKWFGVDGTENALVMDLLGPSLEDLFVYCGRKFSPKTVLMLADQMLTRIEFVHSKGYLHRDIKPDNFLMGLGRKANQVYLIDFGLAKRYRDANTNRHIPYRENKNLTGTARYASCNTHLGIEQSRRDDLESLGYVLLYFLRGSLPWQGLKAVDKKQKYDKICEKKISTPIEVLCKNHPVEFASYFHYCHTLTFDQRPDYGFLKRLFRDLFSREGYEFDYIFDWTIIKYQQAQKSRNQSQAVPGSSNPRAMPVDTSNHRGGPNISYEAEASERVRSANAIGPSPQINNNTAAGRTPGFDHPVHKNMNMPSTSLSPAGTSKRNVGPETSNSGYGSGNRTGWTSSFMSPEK
smiles,measurement,setting,value
C#CCn1c2c(c(Br)c1-c1ccncc1)C(=O)NCC2.Cl [AMI‐331],pIC50,Recombinant CKL4 kinase,6.15
same,Spectra (PSMs) AMI‐329 beads bound,CKL3 (AT4G28880); competitor AMI‐331 5 µM,1 PSMs
same,Spectra (PSMs) AMI‐329 beads bound,CKL3 (AT4G28880); competitor AMI‐331 50 µM,0 PSMs
same,Spectra (PSMs) AMI‐329 beads bound,CKL7 (AT5G44100); competitor AMI‐331 5 µM,1 PSMs
same,Spectra (PSMs) AMI‐329 beads bound,CKL7 (AT5G44100); competitor AMI‐331 50 µM,0 PSMs
